The source of these data is US9029574B2, “Bicyclic compound and use thereof for medical purposes” (Ono Pharmaceutical Co., Ltd., priority 2011, dated 2015).

Holding throughout (type): cell-based
For assay [1], the target named is T1, mouse FP receptor (Mus musculus, UniProt P43117).
T1 construct: expressed in transfected cells; host or cells: CHO cells (FP-CHO)
As to the kind of experiment: Measurement of FP agonist activity (intracellular calcium concentration) in FP-CHO cells. The conditions noted are these: for EC50: FP-CHO cells, intracellular calcium concentration, read-out: Agonist activity on various prostanoid receptors: EC50 value (nmol/L) FP. The source says:
(§1) (1-1) Measurement of Agonist Activity on Various Mouse Prostanoid Receptors
(§2) With using CHO cells (FP-CHO, EP1-CHO and IP-CHO, respectively) in which various mouse prostanoid receptors were forcibly expressed, respectively, agonist activity of test compounds on various prostanoid receptors was studied employing an intracellular calcium concentration regarding FP and EP1, and an intracellular cyclic AMP (hereinafter, abbreviated as cAMP) production amount regarding IP, as an index.
(§3) The test compound was dissolved with dimethyl sulfoxide (DMSO) to prepare a 10 mmol/L solution. Regarding the prepared 10 mmol/L solution, upon use, the 10 mmol/L solution was thawed; step wisely-diluted using DMSO; and diluted with a buffer solution for measurement or a buffer solution for measurement 2, which was subjected to an experiment.
(§4) Cells forcibly expressing various mouse prostanoid receptors were standing-cultured at 37° C. in the presence of 5% CO2 with using an α-MEM medium (Sigma) (for culturing FP-CHO and EP1-CHO) containing inactivated (56° C., 30 minutes) 9.8 vol % dialysed-FBS (Invitrogen) and penicillin-streptomycin-glutamine (GIBCO-BRL), or nucleic acid-containing α-MEM (Sigma) (for culturing IP-CHO) containing inactivated (56° C., 30 minutes) 9.8 vol % dialysed-FBS (Invitrogen) and penicillin-streptomycin glutamine (Invitrogen). Subculturing was performed by the following method.
(§5) After collecting cells into a centrifuging tube, cells were centrifuged at 120 g for 3 minutes at room temperature and the supernatant was removed. Cells were suspended in a suitable amount of a medium, and seeded in a culturing flask.
(§6) (1-2) Measurement of FP and EP1 Agonist Activity (Measurement of Intracellular Calcium Concentration)
(§7) Regarding FP-CHO and EP1-CHO, by the same method as that of subculturing, cells were peeled and suspended. Before two days from measurement, cells were seeded at a density of 1.0×10^4 cells/well into a 96-well UV plate, and standing-cultured at 37° C. in the presence of 5% CO2. […] To each well, 100 μL of a medium containing 5 μmol/L fura 2-AM (DOJINDO), 2.5 mmol/L Probenecid (Sigma), 20 μmol/L indometacin (Sigma) and 10 mmol/L HEPES (Invitrogen) was added, and cells were incubated for about 60 minutes in a CO2 incubator. After completion of the incubation, the medium was removed, and cells were washed with a buffer solution for measurement (Hank's balanced salt solution (Nissui Pharmaceutical Co., Ltd., 9.8 g of the present product was dissolved in 1 L distilled water) containing 0.1 or 1 w/v % bovine serum albumin, 2 μmol/L indometacin, 2.5 mmol/L Probenecid and 10 mmol/L HEPES-NaOH (pH 7.4)) twice. To each well, 120 μL of a buffer solution for measurement was added; and cells were incubated in a CO2 incubator for 30 minutes; and then cells were subjected to an experiment.
(§8) The 96-well UV plate was set in a fluorescent spectral photometer (FDSS-3000, Hamamatsu Photonics K.K.), and an intracellular calcium concentration was measured. To perform a reaction, 30 μL of a buffered solution for measurement containing an agonist at a variety of concentrations was added. Measurement of an intracellular calcium concentration was performed by irradiating cells with excited light of 340 nm and 380 nm alternately, with measuring a fluorescent intensity at 500 nm, and obtaining a fluorescent intensity ratio of 2-wavelength excitation.
(§9) With using measured values obtained from the above method, an EC50 value as an index of agonist activity of the compound of the present invention on mouse FP, mouse EP1 and mouse IP receptors was calculated.

Assay [2] concerns the target T2, mouse IP receptor (Mus musculus, UniProt P43252).
T2 construct: expressed in transfected cells; host or cells: CHO cells (IP-CHO)
As to the kind of experiment: Measurement of IP agonist activity (cAMP concentration) in IP-CHO cells. To be noted: for EC50: IP-CHO cells, intracellular cAMP production amount, read-out: Agonist activity on various prostanoid receptors: EC50 value (nmol/L) IP.
Text: as §1, §2, §3, §4, §5
(1-3) Measurement of IP Agonist Activity (Measurement of cAMP Concentration)
Cells were suspended in a suitable amount of a buffer solution for measurement 1 (MEM medium (Invitrogen) containing 0.1 w/v % bovine serum albumin (Sigma) and 2 μmol/L diclofenac (Sigma)), and centrifuged at room temperature for 3 minutes at 500 g, and the supernatant was removed. Cells were suspended in a buffer solution for measurement 2 (MEM medium (Invitrogen) containing 0.1 w/v % bovine serum albumin (Sigma), 2 μmol/L diclofenac (Sigma) and 1 mmol/L 3-isobutyl-1-methylxanthine), and each 25 μL of the suspension was dispensed at a density of 5.0×10^4 cells/well into a 96-well ½ area plate. A buffer solution for measurement 2 (25 μL) containing an agonist at a variety of concentrations was added to perform a reaction at room temperature for 30 minutes. Measurement of a cAMP concentration was performed with using the cAMP HTRF HiRange kit (CIS bio International). According to the two step protocol of the kit manual, each 25 μL of cAMP-D2 and cryptase diluted with a lysis buffer were added, followed by incubation at room temperature for 1 hour. After incubation for 1 hour, time resolved fluorescence at 620 nm and 660 nm in case of beging excited at 340 nm was measured using Analyst GT (Molecular Device), and a ratio (TRF ratio) was obtained, by which a cAMP concentration was calculated from a calibration line.
as §9
(cAMP levels reflect the balance of adenylyl cyclase and phosphodiesterase activity.)

The target in assay [3] is T3, mouse EP1 receptor (Mus musculus, UniProt P35375).
T3 construct: expressed in transfected cells; host or cells: CHO cells (EP1-CHO)
T3 sequence (P35375 1-405): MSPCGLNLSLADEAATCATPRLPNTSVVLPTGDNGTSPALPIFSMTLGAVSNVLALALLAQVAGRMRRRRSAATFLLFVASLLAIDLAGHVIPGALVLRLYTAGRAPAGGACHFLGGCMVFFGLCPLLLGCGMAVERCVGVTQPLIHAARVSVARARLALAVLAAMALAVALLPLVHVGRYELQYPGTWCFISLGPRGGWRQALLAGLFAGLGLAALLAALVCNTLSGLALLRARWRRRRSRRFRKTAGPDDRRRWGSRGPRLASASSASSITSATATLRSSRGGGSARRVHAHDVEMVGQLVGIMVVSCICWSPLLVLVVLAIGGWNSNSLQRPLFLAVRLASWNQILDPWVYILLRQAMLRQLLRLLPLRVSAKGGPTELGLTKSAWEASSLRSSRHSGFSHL
As to the kind of experiment: Measurement of EP1 agonist activity (intracellular calcium concentration) in EP1-CHO cells. To be noted: for EC50: EP1-CHO cells, intracellular calcium concentration, read-out: Agonist activity on various prostanoid receptors: EC50 value (nmol/L) EP1.
Text: as §1, §2, §3, §4, §5, §6, §7, §8, §9
For orientation: A change in cytosolic calcium serves as a functional read-out for many receptors and channels.

T1 sequence (P43117 whole entry): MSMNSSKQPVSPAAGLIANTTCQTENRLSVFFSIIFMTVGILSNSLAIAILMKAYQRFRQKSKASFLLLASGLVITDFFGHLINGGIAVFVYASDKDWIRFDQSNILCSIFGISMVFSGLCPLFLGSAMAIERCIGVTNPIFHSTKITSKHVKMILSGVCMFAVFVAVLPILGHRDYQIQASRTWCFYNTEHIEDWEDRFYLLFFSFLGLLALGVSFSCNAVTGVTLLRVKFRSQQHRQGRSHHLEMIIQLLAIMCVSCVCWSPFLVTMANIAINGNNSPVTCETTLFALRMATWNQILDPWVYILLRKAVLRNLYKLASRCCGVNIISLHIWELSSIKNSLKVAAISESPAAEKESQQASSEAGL
T2 sequence (P43252 whole entry): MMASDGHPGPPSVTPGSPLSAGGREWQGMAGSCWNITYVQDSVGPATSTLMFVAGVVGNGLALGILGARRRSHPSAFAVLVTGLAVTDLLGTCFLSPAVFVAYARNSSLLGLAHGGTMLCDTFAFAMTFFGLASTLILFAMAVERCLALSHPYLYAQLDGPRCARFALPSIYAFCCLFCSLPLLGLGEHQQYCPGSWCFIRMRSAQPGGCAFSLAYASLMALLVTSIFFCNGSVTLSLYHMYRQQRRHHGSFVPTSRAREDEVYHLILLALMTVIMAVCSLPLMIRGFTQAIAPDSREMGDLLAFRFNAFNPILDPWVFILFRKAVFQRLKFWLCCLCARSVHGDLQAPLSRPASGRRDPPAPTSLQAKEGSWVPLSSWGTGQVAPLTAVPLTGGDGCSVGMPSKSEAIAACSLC

Turning to `O=C(O)CCC[C@H]1CC[C@@H]2[C@@H](/C=C/[C@@H](O)COc3ccccc3)[C@H](O)C[C@@H]2O1` [Comparative Compound A, reference compound], the EC50 was 1.1 nmol/L in assay [1], 710 nmol/L in assay [2] and 3 nmol/L in assay [3]. The “agonist activity on an FP receptor” value in assay [1] (in words, summary of Table 1) was “has agonist activity”. Also, the “agonist activity on an IP receptor” value in assay [2] (in words, summary of Table 1) is reported as “has agonist activity”. In addition, the “agonist activity on an EP1 receptor” value in assay [3] (in words, summary of Table 1) is given as “has agonist activity”.
For the compound `O=C(O)CCC[C@H]1CC[C@@H]2[C@@H](CC[C@@H](O)COc3cccc(C(F)(F)F)c3)[C@H](O)C[C@@H]2OC1` [Example 108 (13), 4-[(3S,5aR,6R,7R,8aS)-7-hydroxy-6-{(3R)-3-hydroxy-4-[3-(trifluoromethyl)phenoxy]butyl}octahydro-2H-cyclopenta[b]oxepin-3-yl]butanoic acid], the EC50 in assay [1] was 9.7 nmol/L; in assay [2], over 10000 nmol/L; in assay [3], over 10000 nmol/L.
Regarding `O=C(O)CCC[C@H]1CC[C@@H]2[C@@H](COC/C=C/c3ccccc3)[C@H](O)C[C@@H]2OC1` [Example 110, 4-[(3S,5aR,6S,7R,8aS)-7-hydroxy-6-({[(2E)-3-phenyl-2-propen-1-yl]oxy}methyl)octahydro-2H-cyclopenta[b]oxepin-3-yl]butanoic acid], the EC50 in assay [1] was 707 nmol/L; in assay [2], over 10000 nmol/L; in assay [3], over 10000 nmol/L.
For `O=C(O)CCC[C@H]1CC[C@@H]2[C@@H](CCOCCc3ccccc3)[C@H](O)C[C@@H]2OC1` [Example 115, 4-{(3S,5aR,6R,7R,8aS)-7-hydroxy-6-[2-(2-phenylethoxy)ethyl]octahydro-2H-cyclopenta[b]oxepin-3-yl}butanoic acid], the EC50 in assay [1] was 509 nmol/L; in assay [2] it was over 10000 nmol/L; in assay [3] it was over 10000 nmol/L.
Turning to `O=C(O)CCC[C@H]1CC[C@@H]2[C@@H](C#CC(O)CCc3ccccc3)[C@H](O)C[C@@H]2OC1` (stereo partly drawn) [Example 119, 4-[(3S,5aR,6S,7R,8aS)-7-hydroxy-6-(3-hydroxy-5-phenyl-1-pentyn-1-yl)octahydro-2H-cyclopenta[b]oxepin-3-yl]butanoic acid], the EC50 in assay [1] was 50.8 nmol/L; in assay [2], over 10000 nmol/L; in assay [3], over 10000 nmol/L.
In the case of `O=C(O)CCC[C@H]1CC[C@@H]2[C@@H](/C=C/C(F)COc3ccccc3)[C@H](O)C[C@@H]2OC1` (stereo partly drawn) [Example 122, 4-{(3S,5aR,6R,7R,8aS)-6-[(1E)-3-fluoro-4-phenoxy-1-buten-1-yl]-7-hydroxyoctahydro-2H-cyclopenta[b]oxepin-3-yl}butanoic acid], the EC50 in assay [1] was 9.8 nmol/L; in assay [2] it was over 10000 nmol/L; in assay [3] it was 9270 nmol/L.
For `O=C(O)CCC[C@H]1CC[C@@H]2[C@@H](C(F)/C=C/COc3ccccc3)[C@H](O)C[C@@H]2OC1` (stereo partly drawn) [Example 123, 4-{(3S,5aR,6R,7R,8aS)-6-[(2E)-1-fluoro-4-phenoxy-2-buten-1-yl]-7-hydroxyoctahydro-2H-cyclopenta[b]oxepin-3-yl}butanoic acid] the same measures were 99.2 nmol/L, over 10000 nmol/L and over 10000 nmol/L.
Take `O=C(O)CCC[C@H]1CC[C@@H]2[C@@H](/C=C/C(O)COCc3ccccc3)[C@H](O)C[C@@H]2OC1` (stereo partly drawn) [Example 132 (3), 4-{(3S,5aR,6R,7R,8aS)-6-[(1E)-4-(benzyloxy)-3-hydroxy-1-buten-1-yl]-7-hydroxyoctahydro-2H-cyclopenta[b]oxepin-3-yl}butanoic acid]: the EC50 in assay [1] was 114 nmol/L; in assay [2], over 10000 nmol/L; in assay [3], over 10000 nmol/L.
`O=C(O)CCC[C@H]1CC[C@@H]2[C@@H](/C=C/C(O)CCC3CCCC3)[C@H](O)C[C@@H]2OC1` (stereo partly drawn) [Example 132 (7), 4-{(3S,5aR,6R,7R,8aS)-6-[(1E)-5-cyclopentyl-3-hydroxy-1-penten-1-yl]-7-hydroxyoctahydro-2H-cyclopenta[b]oxepin-3-yl}butanoic acid]: the figures for the EC50 in assay [1], in assay [2] and in assay [3] were 21.1 nmol/L, over 10000 nmol/L and over 10000 nmol/L, respectively.
`O=C(O)CCC[C@H]1CC[C@H]2[C@H](CC(F)(F)[C@@H]2/C=C/C(O)CCc2ccccc2)OC1` (stereo partly drawn) [Example 139 (2), 4-{(3S,5aR,6R,8aS)-7,7-difluoro-6-[(1E)-3-hydroxy-5-phenyl-1-penten-1-yl]octahydro-2H-cyclopenta[b]oxepin-3-yl}butanoic acid]: the EC50 was 39 nmol/L in assay [1], over 10000 nmol/L in assay [2] and over 10000 nmol/L in assay [3].
Turning to `O=C(O)CCC[C@H]1CC[C@@H]2[C@@H](/C=C/C(F)(F)CCc3ccccc3)[C@H](O)C[C@@H]2OC1` [Example 141 (1), 4-{(3S,5aR,6R,7R,8aS)-6-[(1E)-3,3-difluoro-5-phenyl-1-penten-1-yl]-7-hydroxyoctahydro-2H-cyclopenta[b]oxepin-3-yl}butanoic acid], the EC50 in assay [1] is 4.6 nmol/L; in assay [2] it was over 10000 nmol/L; in assay [3], over 10000 nmol/L.
In the case of `CC(C)=CCCCC(F)(F)/C=C/[C@@H]1[C@H]2CC[C@H](CCCC(=O)O)CO[C@H]2C[C@H]1O` [Example 141 (5), 4-{(3S,5aR,6R,7R,8aS)-6-[(1E)-3,3-difluoro-8-methyl-1,7-nonadien-1-yl]-7-hydroxyoctahydro-2H-cyclopenta[b]oxepin-3-yl}butanoic acid], the EC50 in assay [1] was 39.1 nmol/L; in assay [2] it was over 10000 nmol/L; in assay [3], over 10000 nmol/L.
